# Where two headings read alike, the source gives them in different places.
# Tested on: Prostate cancer cells 22RV1
# Assay: Experiment on inhibiting 22RV1 cell proliferation (CellTiter-Glo, 7 days)
# Format: cell-based
# Details: Homo sapiens, 168 h, 22RV1 cells, 7 days incubation, read-out: IC50 values for inhibition of 22RVI cells
# Method: Prostate cancer cells 22RV1 were purchased from ATCC, the cell medium was RPMI 1640+10% FBS, and the cells were cultured in an incubator at 37° C. under 5% CO2. On day 1, the cells in the exponential growth phase were collected. With a 1% css-FBS phenol red-free medium, the cell suspension was adjusted to a corresponding concentration, plated at 2000 cells/well and incubated overnight. On day 2, compounds at different concentrations were added, and the plate was placed in the incubator and incubated for further 7 days. After the incubation was completed, according to operation instructions for a CellTiter-Glo kit (Promega, G7573), 50 μL of CellTiter-Glo reagents, which were already pre-melted and equilibrated to room temperature, were added to each well, and the mixtures were uniformly mixed for 2 min using a microplate shaker. The plate was placed at room temperature for 10 min. and then […] signal values were measured using a microplate reader (PHERAstar FSX). The results were processed according to formula (I), the inhibition rate of the compound at different concentrations was calculated, and the IC50 value of the compound with an inhibition rate of 50% was calculated using origin9.2 software with DoseResp function, wherein RLUcompound was the readout of the treated group, and RLUcontrol was the average value of the DMSO vehicle control group.
# [1] = cells without a unit of their own (μM)
# [2] = cells with nM printed beside the value
Compound,IC50 [1],IC50 [2]
CC(C)(C(=O)Nc1ccc(C#N)c(C(F)(F)F)c1)n1cc(C#CC2CN(c3cc4c(cc3F)C(=O)N(C3CCC(=O)NC3=O)C4=O)C2)cn1 (stereo not drawn) [Compound 3],< 1 µM,–
"Cc1cc(NC(=O)C(C)(C)n2cc(C#CC3CN(c4ccc5c(c4)C(=O)N(C4CCC(=O)NC4=O)C5=O)C3)cn2)ccc1Cl (stereo not drawn) [Compound 16, N-(4-chloro-3-methylphenyl)-2-(4-((1-(2-(2,6-dioxopiperidin-3-yl)-1,3-dioxoisoindolin-5-yl)azetidin-3-yl)ethynyl)-1H-pyrazol-1-yl)-2-methylpropanamide]",< 1 µM,–
"CC(C)(C(=O)Nc1ccc(C(F)(F)F)c(Cl)c1)n1cc(C#CC2CN(c3ccc4c(c3)C(=O)N(C3CCC(=O)NC3=O)C4=O)C2)cn1 (stereo not drawn) [Compound 17, N-(3-chloro-4-(trifluoromethyl)phenyl)-2-(4-((1-(2-(2,6-dioxopiperidin-3-yl)-1,3-dioxoisoindolin-5-yl)azetidin-3-yl)ethynyl)-1H-pyrazol-1-yl)-2-methylpropanamide]",< 1 µM,–
"Cc1ccc(NC(=O)C(C)(C)n2cc(C#CC3CN(c4ccc5c(c4)C(=O)N(C4CCC(=O)NC4=O)C5=O)C3)cn2)cc1Cl (stereo not drawn) [Compound 18, N-(3-chloro-4-methylphenyl)-2-(4-((1-(2-(2,6-dioxopiperidin-3-yl)-1,3-dioxoisoindolin-5-yl)azetidin-3-yl)ethynyl)-1H-pyrazol-1-yl)-2-methylpropanamide]",< 1 µM,–
"CC(C)(C(=O)Nc1cc(Cl)c(C(F)(F)F)c(Cl)c1)n1cc(C#CC2CN(c3ccc4c(c3)C(=O)N(C3CCC(=O)NC3=O)C4=O)C2)cn1 (stereo not drawn) [Compound 22, N-(3,5-dichloro-4-(trifluoromethyl)phenyl)-2-(4-((1-(2-(2,6-dioxopiperidin-3-yl)-1,3-dioxoisoindolin-5-yl)azetidin-3-yl)ethynyl)-1H-pyrazol-1-yl)-2-methylpropanamide]",< 1 µM,–
"COc1cc(NC(=O)C(C)(C)n2cc(C#CC3CN(c4ccc5c(c4)C(=O)N(C4CCC(=O)NC4=O)C5=O)C3)cn2)ccc1C#N (stereo not drawn) [Compound 23, N-(4-cyano-3-methoxyphenyl)-2-(4-((1-(2-(2,6-dioxopiperidin-3-yl)-1,3-dioxoisoindolin-5-yl)azetidin-3-yl)ethynyl)-1H-pyrazol-1-yl)-2-methylpropanamide]",< 1 µM,–
"CC(C)(C(=O)Nc1ccc([N+](=O)[O-])c(Cl)c1)n1cc(C#CC2CN(c3ccc4c(c3)C(=O)N(C3CCC(=O)NC3=O)C4=O)C2)cn1 (stereo not drawn) [Compound 25, N-(3-chloro-4-nitrophenyl)-2-(4-((1-(2-(2,6-dioxopiperidin-3-yl)-1,3-dioxoisoindolin-5-yl)azetidin-3-yl)ethynyl)-1H-pyrazol-1-yl)-2-methylpropanamide]",< 1 µM,–
"CC(C)(C(=O)Nc1ccc([N+](=O)[O-])c(C(F)(F)F)c1)n1cc(C#CC2CN(c3ccc4c(c3)C(=O)N(C3CCC(=O)NC3=O)C4=O)C2)cn1 (stereo not drawn) [Compound 26, 2-(4-((1-(2-(2,6-dioxopiperidin-3-yl)-1,3-dioxoisoindolin-5-yl)azetidin-3-yl)ethynyl)-1H-pyrazol-1-yl)-2-methyl-N-(4-nitro-3-(trifluoromethyl)phenyl)propanamide]",< 1 µM,–
"CC(C)(C(=O)Nc1ccc(C#N)cc1F)n1cc(C#CC2CN(c3ccc4c(c3)C(=O)N(C3CCC(=O)NC3=O)C4=O)C2)cn1 (stereo not drawn) [Compound 27, N-(4-cyano-2-fluorophenyl)-2-(4-((1-(2-(2,6-dioxopiperidin-3-yl)-1,3-dioxoisoindolin-5-yl)azetidin-3-yl)ethynyl)-1H-pyrazol-1-yl)-2-methylpropanamide]",< 1 µM,–
"CC(C)(C(=O)Nc1ccc(C#N)c(F)c1)n1cc(C#CC2CN(c3ccc4c(c3)C(=O)N(C3CCC(=O)NC3=O)C4=O)C2)cn1 (stereo not drawn) [Compound 32, N-(4-cyano-3-fluorophenyl)-2-(4-((1-(2-(2,6-dioxopiperidin-3-yl)-1,3-dioxoisoindolin-5-yl)azetidin-3-yl)ethynyl)-1H-pyrazol-1-yl)-2-methylpropanamide]",< 1 µM,–
"N#Cc1ccc(NC(=O)C2(n3cc(C#CC4CN(c5ccc6c(c5)C(=O)N(C5CCC(=O)NC5=O)C6=O)C4)cn3)CCC2)c2ccccc12 (stereo not drawn) [Compound 34, N-(4-cyanonaphthalen-1-yl)-1-(4-((1-(2-(2,6-dioxopiperidin-3-yl)-1,3-dioxoisoindolin-5-yl)azetidin-3-yl)ethynyl)-1H-pyrazol-1-yl)cyclobutane-1-carboxamide]",–,< 0.1 µM
"O=C1CCC(N2C(=O)c3ccc(N4CC(C#Cc5cnn(C6(C(=O)Nc7ccc(C(F)(F)F)cc7C7CC7)CCC6)c5)C4)cc3C2=O)C(=O)N1 (stereo not drawn) [Compound 35, N-(2-cyclopropyl-4-(trifluoromethyl)phenyl)-1-(4-((1-(2-(2,6-dioxopiperidin-3-yl)-1,3-dioxoisoindolin-5-yl)azetidin-3-yl)ethynyl)-1H-pyrazol-1-yl)cyclobutane-1-carboxamide]",–,< 0.05 µM
"N#Cc1ccc(NC(=O)C2(n3cc(C#CC4CN(c5ccc6c(c5)C(=O)N(C5CCC(=O)NC5=O)C6=O)C4)cn3)CCC2)cc1C1CC1 (stereo not drawn) [Compound 40, N-(4-cyano-3-cyclopropylphenyl)-1-(4-((1-(2-(2,6-dioxopiperidin-3-yl)-1,3-dioxoisoindolin-5-yl)azetidin-3-yl)ethynyl)-1H-pyrazol-1-yl)cyclobutane-1-carboxamide]",–,< 0.1 µM
"CCC(CC)(C(=O)Nc1ccc(C#N)c(C(F)(F)F)c1)n1cc(C#CC2CN(c3ccc4c(c3)C(=O)N(C3CCC(=O)NC3=O)C4=O)C2)cn1 (stereo not drawn) [Compound 41, N-(4-cyano-3-(trifluoromethyl)phenyl)-2-(4-((1-(2-(2,6-dioxopiperidin-3-yl)-1,3-dioxoisoindolin-5-yl)azetidin-3-yl)ethynyl)-1H-pyrazol-1-yl)-2-ethylbutanamide]",–,< 0.05 µM
"CC(C)(C(=O)Nc1ccc(C(F)(F)F)cc1C#N)n1cc(C#CC2CN(c3ccc4c(c3)C(=O)N(C3CCC(=O)NC3=O)C4=O)C2)cn1 (stereo not drawn) [Compound 42, N-(2-cyano-4-(trifluoromethyl)phenyl)-2-(4-((1-(2-(2,6-dioxopiperidin-3-yl)-1,3-dioxoisoindolin-5-yl)azetidin-3-yl)ethynyl)-1H-pyrazol-1-yl)-2-methylpropanamide]",< 1 µM,–
"CC(C)(C(=O)Nc1ccc(C#N)c2ncccc12)n1cc(C#CC2CN(c3ccc4c(c3)C(=O)N(C3CCC(=O)NC3=O)C4=O)C2)cn1 (stereo not drawn) [Compound 43, N-(8-cyanoquinolin-5-yl)-2-(4-((1-(2-(2,6-dioxopiperidin-3-yl)-1,3-dioxoisoindolin-5-yl)azetidin-3-yl)ethynyl)-1H-pyrazol-1-yl)-2-methylpropanamide]",< 1 µM,–
"CC(C)(C(=O)Nc1ccc(C#N)cc1C(F)(F)F)n1cc(C#CC2CN(c3ccc4c(c3)C(=O)N(C3CCC(=O)NC3=O)C4=O)C2)cn1 (stereo not drawn) [Compound 44, N-(4-cyano-2-(trifluoromethyl)phenyl)-2-(4-((1-(2-(2,6-dioxopiperidin-3-yl)-1,3-dioxoisoindolin-5-yl)azetidin-3-yl)ethynyl)-1H-pyrazol-1-yl)-2-methylpropanamide]",< 1 µM,–
"N#Cc1ccc(NC(=O)C2(n3cc(C#CC4CN(c5ccc6c(c5)C(=O)N(C5CCC(=O)NC5=O)C6=O)C4)cn3)CCC2)c(C2CC2)c1 (stereo not drawn) [Compound 45, N-(4-cyano-2-cyclopropylphenyl)-1-(4-((1-(2-(2,6-dioxopiperidin-3-yl)-1,3-dioxoisoindolin-5-yl)azetidin-3-yl)ethynyl)-1H-pyrazol-1-yl)cyclobutane-1-carboxamide]",–,< 0.05 µM

# From patent publication US20250171417A1, “HETEROCYCLIC DERIVATIVE, AND COMPOSITION AND PHARMACEUTICAL USE THEREOF” (Xizang Haisco Pharmaceutical Co., Ltd., priority 2021, published 2025)
